Test results reported in ChEMBL document CHEMBL4814037, “Synthesis of pyrazoline fatty chain derivatives and its effects on melanoma cells” (2021).
The source made the active and inactive calls. The calls are words filed in the database; no cut-off is given here.

Columns and labels:
B16-F10 [1] = test: Cytotoxicity against mouse B16-F10 cells assessed as cell viability at 3000 uM incubated for 48 hrs relative to control; format: functional; settings: read-out: Activity
B16-F10 [2] = test: Cytotoxicity against mouse B16-F10 cells assessed as cell viability at 3000 uM incubated for 72 hrs relative to control; format: functional; settings: for viability at 3000 µM: read-out: Activity
B16-F10 [3] = test: Cytotoxicity against mouse B16-F10 cells assessed as cell viability at 3000 uM incubated for 24 hrs relative to control; format: functional; settings: for viability at 3000 µM: read-out: Activity
B16-F10 [4] = test: Cytotoxicity against mouse B16-F10 cells assessed as cell viability at 3 to 3000 uM measured after 48 to 72 hrs; format: functional, cell-based; settings: dose 3-3000 µM, time 48-72 hrs
B16-F10 [5] = test: Cytotoxicity against mouse B16-F10 cells assessed as decrease in cell viability at 3000 uM incubated for 72 hrs; format: functional, cell-based
B16-F10 [6] = test: Cytotoxicity against mouse B16-F10 cells assessed as cell viability at 300 uM incubated for 72 hrs relative to control; format: functional; settings: for viability at 300 µM: read-out: Activity
B16-F10 [7] = test: Cytotoxicity against mouse B16-F10 cells assessed as cell viability at 300 uM incubated for 48 hrs relative to control; format: functional; settings: read-out: Activity
B16-F10 [8] = test: Cytotoxicity against mouse B16-F10 cells assessed as cell viability at 3 uM incubated for 48 hrs relative to control; format: functional; settings: read-out: Activity
B16-F10 [9] = test: Cytotoxicity against mouse B16-F10 cells assessed as cell viability at 30 uM incubated for 48 hrs relative to control; format: functional; settings: read-out: Activity
B16-F10 [10] = test: Cytotoxicity against mouse B16-F10 cells assessed as cell viability at 300 uM incubated for 24 hrs relative to control; format: functional; settings: read-out: Activity
B16-F10 [11] = test: Cytotoxicity against mouse B16-F10 cells assessed as cell viability at 30 uM incubated for 72 hrs relative to control; format: functional; settings: read-out: Activity
B16-F10 [12] = test: Cytotoxicity against mouse B16-F10 cells assessed as cell viability at 300 uM measured immediately relative to control; format: functional; settings: read-out: Activity

CCCCCCC1=NN(C(N)=S)C(O)(C(F)(F)F)C1 (stereo not drawn)
viability at 3000 µM (B16-F10 [1]): 8%
viability at 3000 µM (B16-F10 [2]): 8%
viability at 3000 µM (B16-F10 [3]): 16%

NC(=S)N1N=CCC1(O)C(F)(F)F (stereo not drawn)
inhibition (B16-F10 [4]): Active

CC1=NN(C(N)=O)C(O)(C(F)(F)F)C1 (stereo not drawn)
Activity (B16-F10 [5]): Active

NC(=O)N1N=CCC1(O)C(F)(F)F (stereo not drawn)
viability at 3000 µM (B16-F10 [1]): 17%
viability at 300 µM (B16-F10 [6]): 17%
viability at 3000 µM (B16-F10 [2]): 7%
viability at 300 µM (B16-F10 [7]): 43%

CCCCCCCCCCCC1=NN(C(N)=S)C(O)(C(F)(F)F)C1 (stereo not drawn)
viability at 3 µM (B16-F10 [8]): 89%
viability at 30 µM (B16-F10 [9]): 67%
viability at 300 µM (B16-F10 [6]): 10%
viability at 300 µM (B16-F10 [7]): 18%
viability at 300 µM (B16-F10 [10]): 17%

CCCCCCC1=NN(C(N)=O)C(O)(C(F)(F)F)C1 (stereo not drawn)
viability at 3000 µM (B16-F10 [1]): 8%
Activity (B16-F10 [6]): Active
Activity (B16-F10 [2]): Active
viability at 300 µM (B16-F10 [7]): 53%
viability at 3000 µM (B16-F10 [3]): 76%

CCCCCCCCCCCC1=NN(C(N)=O)C(O)(C(F)(F)F)C1 (stereo not drawn)
viability at 30 µM (B16-F10 [11]): 51%
viability at 30 µM (B16-F10 [9]): 76%
Activity (B16-F10 [5]): Active
viability at 300 µM (B16-F10 [12]): 78%
viability at 300 µM (B16-F10 [7]): 16%
viability at 300 µM (B16-F10 [10]): 17%

CC1=NN(C(N)=S)C(O)(C(F)(F)F)C1 (stereo not drawn)
viability at 3000 µM (B16-F10 [1]): 9%
viability at 3000 µM (B16-F10 [2]): 4%
Activity (B16-F10 [3]): Active
